# Source: patent US20220227761A1, “OXOACRIDINYL ACETIC ACID DERIVATIVES AND METHODS OF USE” (STINGTHERA, INC., priority 2019, published 2022)
# Legend:
# [1] = tested on: STING protein; IRF/IFN signaling in THP-1 R232 cells; assay: Cell based reporter assay, THP-1 R232 IRF-luc; details: Homo sapiens, THP1-dual-KI R232 cells, IRF luciferase reporter; for Emax: maximum measured activity, read-out: THP 1-dual-KI R232_IRF(Luciferase)_Activity Maximum measured (%); for IC50: read-out: THP 1-dual-KI R232_IRF(Luciferase) IC50
# Excerpt: Cell reporter assays were developed to measure the ability of compounds of the application to activate the STING protein and activate both IRF/IFN and the NFkB signaling pathways in the myeloid derived cell line THP-1, which is commercially available from several suppliers. Briefly, THP-1 monocytes were transfected and selected for stable integration of 2 reporter constructs. Clones incorporating stably integrated vectors were further selected by antibiotic resistance to blastocidin and zeocin. The reporter constructs included: (1) firefly luciferase reporter gene under the control of an ISG54 promoter fused to five interferon (IFN)-stimulated response elements to measure IRF transcription factor binding activity and (2) secreted embryonic alkaline phosphatase reporter gene under transcription control of an IFN-beta minimal promoter fused to 5 copies of the NFkB consensus transcriptional response element and 3 copies of the c-Rel binding site.
# The resulting THP-1 cell line was further modified to incorporate 3 amino acid point mutations (H71R A230G Q293R). This modification of the native TMEM173 gene in THP-1 cells (HAQ) was designed to produce a cell reporter that expressed the most common allelic variant in the human population (THP-1 R232, available from InvivoGen). Alternatively, the TMEM173 gene was knocked out to provide a congenic control to counter-screen for compound activation that was independent of the STING protein (THP-1 STING KO).
# Once cell lines were established, reporter assay protocols were developed and optimized to screen small molecule compounds for agonist activity. Assay optimization for efficacy and Z′ value included titration of the following parameters:
# • 1. Cell pre-activation with PMA • 2. Cell seeding density • 3. DMSO tolerance • 4. Media selection • 5. FBS concentration • 6. Incubation time • 7. Co-Assessment of cell viability by CTG assay • 8. Appropriate HPE and ZPE controls • 9. Dose Response Titration
# • 1. No pre-activation with PMA • 2. 5×10^4 cells/well in 96 well plate format • 3. <0.5% DMSO • 4. RPMI 1640+2.5 mg/ml glucose • 5. 10% FBS • 6. 14-18 hr incubation • 7. Cell Titer Glo reagent (Promega) following supernatant removal • 8. […] 8 point, 2 fold, duplicate starting at 150 μM
# hSTING-R232 (aa140-379) = hSTING-R232 (aa140-379) (Homo sapiens, UniProt Q86WV6, H232R); assay: STING differential scanning fluorimetry (DSF) assay, hSTING WT; details: shift in melting temperature apo vs ligand-bound
# Sequence of hSTING-R232 (aa140-379) (Q86WV6 140-379 H232R): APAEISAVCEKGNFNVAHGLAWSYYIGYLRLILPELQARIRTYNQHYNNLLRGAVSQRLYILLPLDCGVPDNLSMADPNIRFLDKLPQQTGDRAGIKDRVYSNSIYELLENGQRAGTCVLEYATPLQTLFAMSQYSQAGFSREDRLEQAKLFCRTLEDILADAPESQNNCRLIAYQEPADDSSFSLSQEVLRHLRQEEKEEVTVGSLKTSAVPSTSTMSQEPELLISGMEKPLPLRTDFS
# Method: A STING DSF assay was performed to determine protein thermostability shift in response to small molecule ligand binding. A STING thermnostability shift assay based on differential scanning fluorimetry was used to measure (1) the net shift in melting temperature (ΔTm) between the apo and ligand-bound states of the STING protein and (2) the concentration of the thermal denaturation transition (EC50) as a surrogate measure of binding affinity (Kd). […] Protein in assay buffer was transferred to a 384 well plate and incubated with the hydrophobic fluorescent dye SYBR Orange. A temperature ramp was applied to the plate and the resulting dye fluorescence was plotted as a function of temperature. The first derivative of this function (dF/dT) was then used to extrapolate the melting temperature of the protein at various concentrations of compound and determine the thermal denaturation profile of a protein/compound complex.
# 5 μM purified Target STING Protein • 3. 8 μM Sypro Orange Dye • 4. Buffer: 100 mM NaCl, 30 mM HEPES, pH 7.5 • 5. Thermal Ramp: 0.5° C./min • 6. <1% DMSO • 7. 11 point, 2 fold dilution, duplicate, 300 μM high concentrations • 8.
# [2] = target: human STING protein (140-379), WT (Homo sapiens, UniProt Q86WV6, H232R); assay: Radiometric filtration binding competition assay (FBA), hSTING-WT; details: WT-hSWAT IC50 (μM), WT_FBA_HIS-SUMO-hSWAT; wild-type human STING; competition with [H3] 2′3′cGAMP
# Sequence of human STING protein (140-379), WT (Q86WV6 140-379 H232R): as above
IC50 [1],WT_DSF_hSWAT Tm Shift (° C.) (hSTING-R232 (aa140-379)),IC50 [2],Compound,Emax [1]
> 150 µM,B (“B” = 0-2° C.),< 20 µM,COc1cc2c(=O)c3ccc(Cl)c(N(C)C)c3n(CC(=O)O)c2cc1OC [Compound 1],5 to 25%
< 50 µM,D (“D” >7° C.),20 to 100 µM,COc1ccc2c(=O)c3ccc(Cl)c(N(C)C)c3n(CC(=O)O)c2c1 [Compound 2],> 50%
< 50 µM,C (“C” = 2-7° C.),20 to 100 µM,CN(C)c1c(Cl)ccc2c(=O)c3cc(Cl)c(Br)cc3n(CC(=O)O)c12 [Compound 3],> 50%
< 50 µM,D (“D” >7° C.),< 20 µM,Cc1cccn1-c1ccc2c(=O)c3ccc(Cl)c(N(C)C)c3n(CC(=O)O)c2c1 [Compound 4],> 50%
< 50 µM,C (“C” = 2-7° C.),20 to 100 µM,CN(C)c1c(Cl)ccc2c(=O)c3ccc(-n4ccnc4)cc3n(CC(=O)O)c12 [Compound 5],> 50%
< 50 µM,D (“D” >7° C.),< 20 µM,CN(C)c1c(Cl)ccc2c(=O)c3ccc(-n4cccn4)cc3n(CC(=O)O)c12 [Compound 6],> 50%
< 50 µM,D (“D” >7° C.),< 20 µM,CN(C)c1c(Cl)ccc2c(=O)c3ccc(-n4cccc4)cc3n(CC(=O)O)c12 [Compound 7],> 50%
< 50 µM,D (“D” >7° C.),< 20 µM,CN(C)c1c(Cl)ccc2c(=O)c3ccc(-c4ccncc4)cc3n(CC(=O)O)c12 [Compound 8],> 50%
< 50 µM,C (“C” = 2-7° C.),< 20 µM,CN(C)c1c(Cl)ccc2c(=O)c3ccc(-c4cccnc4)cc3n(CC(=O)O)c12 [Compound 9],> 50%
< 50 µM,D (“D” >7° C.),< 20 µM,CN(C)c1c(Cl)ccc2c(=O)c3ccc(-c4ccccn4)cc3n(CC(=O)O)c12 [Compound 10],> 50%
< 50 µM,D (“D” >7° C.),< 20 µM,CN(C)c1c(Cl)ccc2c(=O)c3ccc(-c4ccccc4)cc3n(CC(=O)O)c12 [Compound 11],> 50%
,C (“C” = 2-7° C.),20 to 100 µM,Cc1noc(C)c1-c1ccc2c(=O)c3ccc(Cl)c(N(C)C)c3n(CC(=O)O)c2c1 [Compound 12],
< 50 µM,D (“D” >7° C.),,CN(C)c1c(Cl)ccc2c(=O)c3ccc(-c4cnoc4)cc3n(CC(=O)O)c12 [Compound 13],> 50%
< 50 µM,D (“D” >7° C.),< 20 µM,CN(C)c1c(Cl)ccc2c(=O)c3ccc(-c4cc[nH]c4)cc3n(CC(=O)O)c12 [Compound 14],> 50%
< 50 µM,D (“D” >7° C.),< 20 µM,CN(C)c1c(Cl)ccc2c(=O)c3ccc(C4=CCN(C(=O)OC(C)(C)C)CC4)cc3n(CC(=O)O)c12 [Compound 15],> 50%
< 50 µM,D (“D” >7° C.),< 20 µM,CN(C)c1c(Cl)ccc2c(=O)c3ccc(C4=CCOC4)cc3n(CC(=O)O)c12 [Compound 16],> 50%
< 50 µM,D (“D” >7° C.),< 20 µM,CN(C)c1c(Cl)ccc2c(=O)c3ccc(-c4ccn(C(=O)OC(C)(C)C)c4)cc3n(CC(=O)O)c12 [Compound 17],> 50%
< 50 µM,D (“D” >7° C.),20 to 100 µM,CC/C=C(\CC)c1ccc2c(=O)c3ccc(Cl)c(OC)c3n(CC(=O)O)c2c1 [Compound 18],> 50%
< 50 µM,D (“D” >7° C.),< 20 µM,CC/C=C(\CC)c1ccc2c(=O)c3ccc(Cl)c(N(C)C)c3n(CC(=O)O)c2c1 [Compound 19],> 50%
< 50 µM,D (“D” >7° C.),< 20 µM,CN(C)c1c(Cl)ccc2c(=O)c3ccc(Br)cc3n(CC(=O)O)c12 [Compound 20],> 50%

IC50 [1],WT_DSF_hSWAT Tm Shift (° C.) (hSTING-R232 (aa140-379)),IC50 [2],Compound,Emax [1]
< 50 µM,D (“D” >7° C.),< 20 µM,CC(C)c1ccc2c(=O)c3c(O)cc(Cl)c(N(C)C)c3n(CC(=O)O)c2c1 [Compound 21],> 50%
50 to 100 µM,D (“D” >7° C.),< 20 µM,CCC(C)(C)c1ccc2c(=O)c3ccc(Cl)c(N(C)C)c3n(CC(=O)O)c2c1 [Compound 22],> 50%
< 50 µM,D (“D” >7° C.),< 20 µM,CN(C)c1c(Cl)ccc2c(=O)c3ccc(C4=CCCCC4)cc3n(CC(=O)O)c12 [Compound 23],> 50%
,B (“B” = 0-2° C.),> 300 µM,Cc1ccc2c(=O)c3ccc(C(F)(F)F)c(N(C)C)c3n(CC(=O)O)c2c1 [Compound 26],
,C (“C” = 2-7° C.),20 to 100 µM,COc1c(Cl)ccc2c(=O)c3ccc(C4CCC(N5CCN(C)CC5)CC4)cc3n(CC(=O)O)c12 (stereo not drawn) [Compound 27],
,C (“C” = 2-7° C.),20 to 100 µM,COc1c(Cl)ccc2c(=O)c3ccc(C4=CCC(N5CCN(C)CC5)CC4)cc3n(CC(=O)O)c12 (stereo not drawn) [Compound 28],
< 50 µM,C (“C” = 2-7° C.),,Cc1cc2c(cc1Cl)c(=O)c1ccc(Cl)c(N(C)C)c1n2CC(=O)O [Compound 33],> 50%
,B (“B” = 0-2° C.),> 300 µM,CCc1cccc2c(=O)c3ccc(C)cc3n(CC(=O)O)c12 [Compound 38],
,C (“C” = 2-7° C.),> 300 µM,COc1c(Cl)ccc2c(=O)c3ccc(C4=CCNC4)cc3n(CC(=O)O)c12 [Compound 40],
,D (“D” >7° C.),20 to 100 µM,COc1c(Cl)ccc2c(=O)c3ccc(C4=CCN(C(=O)OC(C)(C)C)C4)cc3n(CC(=O)O)c12 [Compound 41],
,D (“D” >7° C.),< 20 µM,CN(C)c1c(Cl)ccc2c(=O)c3ccc(C(C)(C)C)cc3n(CC(=O)NS(=O)(=O)C3CC3)c12 [Compound 42],
,D (“D” >7° C.),< 20 µM,CN(C)c1c(Cl)ccc2c(=O)c3ccc(C(C)(C)C)cc3n(CC(=O)NC#N)c12 [Compound 43],
,D (“D” >7° C.),20 to 100 µM,Cc1ccc2c(=O)c3ccc(Cl)c(N(C)C)c3n(CC(=O)NS(=O)(=O)C3CC3)c2c1 [Compound 44],
,C (“C” = 2-7° C.),20 to 100 µM,Cc1ccc2c(=O)c3ccc(Cl)c(N(C)C)c3n(CC(=O)NC#N)c2c1 [Compound 45],
,D (“D” >7° C.),20 to 100 µM,CCc1c(Cl)ccc2c(=O)c3ccc(C)cc3n(CC(=O)O)c12 [Compound 48],
,D (“D” >7° C.),20 to 100 µM,C=Cc1c(Cl)ccc2c(=O)c3ccc(C)cc3n(CC(=O)O)c12 [Compound 49],
,D (“D” >7° C.),20 to 100 µM,CN(C)c1c(Cl)ccc2c(=O)c3ccc(-c4ccco4)cc3n(CC(=O)O)c12 [Compound 50],
,C (“C” = 2-7° C.),100 to 300 µM,COc1c(Cl)ccc2c(=O)c3ccc(Br)cc3n(CC(=O)O)c12 [Compound 66],
< 50 µM,,< 20 µM,CN(C)c1c(Cl)ccc2c(=O)c3ccc(C4(C)CC4)cc3n(CC(=O)O)c12 [Compound 85],> 50%
< 50 µM,C (“C” = 2-7° C.),,CCc1cc2c(cc1Cl)c(=O)c1ccc(Cl)c(N(C)C)c1n2CC(=O)O [Compound 93],> 50%
